Values of other authors, collected in patent US20220031861A1, “COMBINATION THERAPY OF DIFFUSE LARGE B-CELL LYMPHOMA COMPRISING AN ANTI-CD79B IMMUNOCONJUGATES, AN ALKYLATING AGENT AND AN ANTI-CD20 ANTIBODY” (priority 2018, published 2022).

Test system: R/R DLBCL
[1] = R/R DLBCL, monotherapy and combined with an anti-CD20 monoclonal antibody

Substance: Polatuzumab vedotin
- complete remission (CR) rates [1]: 0-15%
- overall response rates (ORR) [1]: 13-56%
- CR rate reported previously (in combination with an anti-CD20 monoclonal antibody (Morschhauser et al. 2014, ROMULUS)): 15%
